Where two headings read alike, the source gives them in different places.
Assays:
Format in all cases: in vivo
[1] = system: Yellow Fever Mosquito (Aedes aegypti, AEDSAE); details: for YFM rating: Table ABC / ABC-DP rating
In short: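 Compounds from DMSO master plates (4000 ppm stock) diluted in 90:10 water/acetone, then dispensed into six replicate plates and infested with ~1-day-old Aedes aegypti larvae in liver-powder water. Held covered at room temperature for 3 days; each well scored for larval mortality and graded on a rating scale.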

[2] = system: Cabbage Looper (Trichoplusia ni, TRIPNI); assay: Bioassays on Cabbage Looper (CL), 128-well diet tray assay; details: Trichoplusia ni
In short: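 Percent mortality, averaged across eight replicate wells, after second-instar larvae (1–5 per well) fed for five to seven days on diet dosed at 50 μg/cm^2. Compound was applied in acetone-water 90:10 and dried; trays kept vented at 25° C under 14:10 photoperiod.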

[3] = system: Beet Armyworm (Spodoptera exigua, LAPHEG); assay: Bioassays on Beet Armyworm (BAW), 128-well diet tray assay; details: Spodoptera exigua
In short: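 Larvae at second instar are exposed on dried, compound-treated diet (50 μg/cm^2, delivered in 90:10 acetone-water) in eight replicate wells. After five to seven days at 25° C., 14:10 light-dark, percent mortality in each well is scored and the eight wells averaged.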

[4] = Yellow Fever Mosquito, rating class
[5] = Cabbage Looper, rating class, read-out: CL
[6] = Beet Armyworm, rating class, read-out: BAW
[7] = Cabbage Looper, Table ABC / ABC-DP rating, read-out: CL rating
[8] = Beet Armyworm, Table ABC / ABC-DP rating, read-out: BAW rating
[9] = Table ABC: Biological Results, species YFM
[10] = Table ABC: Biological Results, species CL, read-out: CL
[11] = Table ABC: Biological Results, species BAW, read-out: BAW

SMILES | YFM rating ([1]; Yellow Fever Mosquito) | pest or weed control at 50 µg/cm2 [2, 7] [%] | pest or weed control at 50 µg/cm2 [3, 8] [%] | YFM [1, 9] | pest or weed control at 50 µg/cm2 [2, 10] [%] | pest or weed control at 50 µg/cm2 [3, 11] [%] | also measured
O=C(Nc1c(F)ccc(NC(=O)C(F)F)c1F)c1cc(NC(=O)[C@H]2[C@H](c3ccc(F)c(C(F)(F)F)c3)C2(Cl)Cl)ccc1Cl [F1394, 2-Chloro-5-((1R,3R)-2,2-dichloro-3-(4-fluoro-3-(trifluoromethyl)phenyl)cyclopropane-1-carboxamido)-N-(3-(2,2-difluoroacetamido)-2,6-difluorophenyl)benzamide] |  |  |  |  |  |  | YFM [1, 4]: A (80–100); pest or weed control at 50 µg/cm2 [2, 5]: 50 to 100%; pest or weed control at 50 µg/cm2 [3, 6]: 50 to 100%
COC(C)C(=O)Nc1c(F)ccc(NC(=O)c2cc(NC(=O)[C@H]3[C@H](c4ccc(F)c(C(F)(F)F)c4)C3(Cl)Cl)ccc2Cl)c1F (stereo partly drawn) [F1712, 2-Chloro-5-((1R,3R)-2,2-dichloro-3-(4-fluoro-3-(trifluoromethyl)phenyl)cyclopropane-1-carboxamido)-N-(2,4-difluoro-3-(2-methoxypropanamido)phenyl)benzamide] |  |  |  |  |  |  | YFM [1, 4]: A (80–100); pest or weed control at 50 µg/cm2 [2, 5]: 50 to 100%; pest or weed control at 50 µg/cm2 [3, 6]: 50 to 100%
O=C(NCCC(F)(F)F)c1c(F)ccc(NC(=O)[C@H]2[C@H](c3ccc(F)c(Cl)c3)C2(Cl)Cl)c1F (relative stereo) [F2023, trans-3-(2,2-Dichloro-3-(3-chloro-4-fluorophenyl)cyclopropane-1-carboxamido)-2,6-difluoro-N-(3,3,3-trifluoropropyl)benzamide] | A (80–100) | 50 to 100 | 50 to 100 |  |  |  | 
N#CCC(=O)Nc1c(F)ccc(NC(=O)c2cc(NC(=O)[C@H]3[C@H](c4ccc(F)c(C(F)(F)F)c4)C3(Cl)Cl)ccc2Cl)c1F [F1369, 2-Chloro-N-(3-(2-cyanoacetamido)-2,4-difluorophenyl)-5-((1R,3R)-2,2-dichloro-3-(4-fluoro-3-(trifluoromethyl)phenyl)cyclopropane-1-carboxamido)benzamide] |  |  |  | A (80–100) | 50 to 100 | 50 to 100 | 
CC(=O)Nc1c(F)ccc(NC(=O)c2cc(NC(=O)[C@H]3[C@H](c4cc(C(F)(F)F)cc(C(F)(F)F)c4)C3(Cl)Cl)ccc2Cl)c1F (relative stereo) [F1803, trans-N-(3-Acetamido-2,4-difluorophenyl)-5-(3-(3,5-bis(trifluoromethyl)phenyl)-2,2-dichlorocyclopropane-1-carboxamido)-2-chlorobenzamide] | A (80–100) | 50 to 100 | 50 to 100 |  |  |  | 
Nc1ccc(NC(=O)c2cc(NC(=O)[C@H]3[C@H](c4ccc(F)c(Cl)c4)C3(Cl)Cl)ccc2Cl)cc1Cl (relative stereo) [F1370, trans-N-(4-Amino-3-chlorophenyl)-2-chloro-5-(2,2-dichloro-3-(3-chloro-4-fluorophenyl)cyclopropane-1-carboxamido)benzamide] |  |  |  | A (80–100) | 50 to 100 | 50 to 100 | 
CN(NC(=O)c1cc(NC(=O)[C@H]2[C@H](c3cc(Cl)cc(Cl)c3)C2(Cl)Cl)ccc1Cl)c1ccccc1 [F2510, (1R,3R)-2,2-Dichloro-N-(4-chloro-3-(2-methyl-2-phenylhydrazine-1-carbonyl)phenyl)-3-(3,5-dichlorophenyl)cyclopropane-1-carboxamide] | A (80–100) | 50 to 100 | 50 to 100 |  |  |  | 
CC(C)(C)OC(=O)Nc1c(F)ccc(NC(=O)c2cc(NC(=O)[C@H]3[C@H](c4ccc(Cl)c(C(F)(F)F)c4)C3(Cl)Cl)ccc2Cl)c1F (relative stereo) [F1077, trans-tert-Butyl-(3-(2-chloro-5-(2,2-dichloro-3-(4-chloro-3-(trifluoromethyl)phenyl)cyclopropane-1-carboxamido)benzamido)-2,6-difluorophenyl)carbamate] |  |  |  | A (80–100) | 50 to 100 | 50 to 100 | 
O=C(Nc1ccc(F)c(NC(=O)C(F)F)c1F)c1cc(NC(=O)[C@H]2[C@H](c3cc(Cl)cc(Cl)c3)C2(Cl)Cl)cc(F)c1F [F1440, 5-((1R,3R)-2,2-Dichloro-3-(3,5-dichlorophenyl)cyclopropane-1-carboxamido)-N-(3-(2,2-difluoroacetamido)-2,4-difluorophenyl)-2,3-difluorobenzamide] |  |  |  |  |  |  | YFM [1, 4]: A (80–100); pest or weed control at 50 µg/cm2 [2, 5]: 50 to 100%; pest or weed control at 50 µg/cm2 [3, 6]: 50 to 100%
O=C(Nc1ccc(F)c(NC(=O)C(F)F)c1F)c1cc(NC(=O)[C@H]2[C@H](c3ccc(Cl)c(Cl)c3)C2(Cl)Cl)ccc1Cl [F1065, 2-Chloro-5-((1R,3R)-2,2-dichloro-3-(3,4-dichlorophenyl)cyclopropane-1-carboxamido)-N-(3-(2,2-difluoroacetamido)-2,4-difluorophenyl)benzamide] |  |  |  | A (80–100) | 50 to 100 | 50 to 100 | 
CCNC(=O)c1cc(NC(=O)[C@H]2[C@H](c3ccc(F)c(Cl)c3)C2(Cl)Cl)cc(C)c1Cl (relative stereo) [F2037, trans-2-Chloro-5-(2,2-dichloro-3-(3-chloro-4-fluorophenyl)cyclopropane-1-carboxamido)-N-ethyl-3-methylbenzamide] | A (80–100) | 50 to 100 | 50 to 100 |  |  |  | 
CCCN(C(=O)C(C)OCC)c1c(F)ccc(NC(=O)c2cc(NC(=O)[C@H]3[C@H](c4ccc(F)c(C(F)(F)F)c4)C3(Cl)Cl)ccc2Cl)c1F (stereo partly drawn) [F1842, 2-Chloro-5-((1R,3R)-2,2-dichloro-3-(4-fluoro-3-(trifluoromethyl)phenyl)cyclopropane-1-carboxamido)-N-(3-(2-ethoxy-N-propylpropanamido)-2,4-difluorophenyl)benzamide] | A (80–100) | 50 to 100 | 50 to 100 |  |  |  | 
N#CC1(C(=O)NNC(=O)c2cc(NC(=O)[C@H]3[C@H](c4cc(Cl)cc(Cl)c4)C3(Cl)Cl)ccc2Cl)CC1 (relative stereo) [F2518, trans-2,2-Dichloro-N-(4-chloro-3-(2-(1-cyanocyclopropane-1-carbonyl)hydrazine-1-carbonyl)phenyl)-3-(3,5-dichlorophenyl)cyclopropane-1-carboxamide] | A (80–100) | 50 to 100 | 50 to 100 |  |  |  | 
Cc1c(NC(=O)c2cc(NC(=O)[C@H]3[C@H](c4ccc(F)c(C(F)(F)F)c4)C3(Cl)Cl)ccc2Cl)cccc1NC(=O)C(F)(F)F [F1451, 2-Chloro-5-((1R,3R)-2,2-dichloro-3-(4-fluoro-3-(trifluoromethyl)phenyl)cyclopropane-1-carboxamido)-N-(2-methyl-3-(2,2,2-trifluoroacetamido)phenyl)benzamide] |  |  |  |  |  |  | YFM [1, 4]: A (80–100); pest or weed control at 50 µg/cm2 [2, 5]: 50 to 100%; pest or weed control at 50 µg/cm2 [3, 6]: 50 to 100%
O=C(COC(F)(F)F)Nc1c(F)ccc(NC(=O)c2cc(NC(=O)[C@H]3[C@H](c4cccc(C(F)(F)F)c4)C3(Cl)Cl)ccc2Cl)c1F [F1774, 2-Chloro-5-((1R,3R)-2,2-dichloro-3-(3-(trifluoromethyl)phenyl)cyclopropane-1-carboxamido)-N-(2,4-difluoro-3-(2-(trifluoromethoxy)acetamido)phenyl)benzamide] | A (80–100) | 50 to 100 | 50 to 100 |  |  |  | 
CC(=O)NNC(=O)c1cc(NC(=O)[C@H]2[C@H](c3cc(Cl)cc(Cl)c3)C2(Cl)Cl)ccc1Cl (relative stereo) [F2514, trans-N-(3-(2-acetylhydrazine-1-carbonyl)-4-chlorophenyl)-2,2-dichloro-3-(3,5-dichlorophenyl)cyclopropane-1-carboxamide] | A (80–100) | 50 to 100 | 50 to 100 |  |  |  | 
O=C(Nc1ccc(F)c(NC(=O)C(Cl)Cl)c1F)c1cc(NC(=O)[C@H]2[C@H](c3ccc(F)c(C(F)(F)F)c3)C2(Cl)Cl)ccc1Cl [F1174, 2-Chloro-5-((1R,3R)-2,2-dichloro-3-(4-fluoro-3-(trifluoromethyl)phenyl)cyclopropane-1-carboxamido)-N-(3-(2,2-dichloroacetamido)-2,4-difluorophenyl)benzamide] |  |  |  | A (80–100) | 50 to 100 | 50 to 100 | 
O=C(Nc1c(F)ccc(NC(=O)c2cc(NC(=O)[C@H]3[C@H](c4ccc(F)c(C(F)(F)F)c4)C3(Cl)Cl)ccc2Cl)c1F)c1ccco1 [F1300, N-(3-(2-Chloro-5-((1R,3R)-2,2-dichloro-3-(4-fluoro-3-(trifluoromethyl)phenyl)cyclopropane-1-carboxamido)benzamido)-2,6-difluorophenyl)furan-2-carboxamide] |  |  |  | A (80–100) | 50 to 100 | 50 to 100 | 
Cc1c(F)cc(NC(=O)[C@H]2[C@H](c3ccc(F)c(Cl)c3)C2(Cl)Cl)cc1C(=O)NCC(F)(F)F (relative stereo) [F2063, trans-5-(2,2-Dichloro-3-(3-chloro-4-fluorophenyl)cyclopropane-1-carboxamido)-3-fluoro-2-methyl-N-(2,2,2-trifluoroethyl)benzamide] | A (80–100) | 50 to 100 | 50 to 100 |  |  |  | 

Reference: patent US20250228239A1, “MOLECULES HAVING PESTICIDAL UTILITY, AND INTERMEDIATES, COMPOSITIONS, AND PROCESSES, RELATED THERETO” (priority 2024, published 2025)
